{
  "source": "patent US20260364072A1",
  "about": "“METHODS FOR PROMOTING EXPANSION OF HUMAN CD34+ CELLS IN VIVO AND FOR PROMOTING NEURAL REGENERATION” (THE REGENTS OF THE UNIVERSITY OF CALIFORNIA, priority 2023, published 2026)",
  "key": {"[1]": {"tested_on": "CD34+Lin- cells (sAML50261)", "assay": "sAML50261 PDX mice, flow cytometry of PB, SP, BM", "type": "in vivo, human cells in Rag2-/-gc-/- mice", "settings": "10 mg/kg, intravenously, twice a week for 2 weeks", "method": "The mouse models were screened by staining the PB of each mouse with a human CD45 mAb. Mice with a threshold of human CD45^+ cells >1% were included in the treatment cohort for Rebecchini. The dosing plan involved administering Rebecsinib at a dose of 10 mg/kg, intravenously, twice a week for 2 weeks, with a total of 5 doses. Single cells were isolated from the mouse organs, including PB, SP, and BM, and subjected to staining with human stem cell markers and lineage cell markers."}, "KG-1a AML cells": {"tested_on": "KG-1a AML cells", "assay": "KG-1a cell viability by flow cytometry", "type": "cell-based, human", "settings": "24 hr", "description": "(FIG. 29A) Quantification of cell viability (left panel) and splicing modulation (RFP/GFP ratios, right panel) by flow cytometry analyses of the human AML cell line (KG-1a) stably transduced with a lentiviral dual-fluorescence splicing reporter vector and treated with increasing concentrations of Rebecsinib.\nFor generation of stably transduced splicing reporter cell lines, a previously described splicing reporter construct^31 was cloned into a lentiviral vector backbone.^52 KG-1a cells were transduced with the dual-fluorescent lentiviral splicing reporter vector, treated with various concentrations of Rebecsinib (3-fold serial dilutions from 3 μM to 4 nM) for 24 hr, washed followed by DAPI staining, and analyzed by flow cytometry for cell viability and RFP/GFP fluorescence intensity. Results were from duplicate wells of each condition. Viability of cells treated with DMSO (0.5% final concentration) was set as 100%. Nonlinear regression curve fit analysis was carried out using Prism software (GraphPad) to determine ECso values for viability and mean fluorescence intensity (MFI) of RFP and GFP."}, "MCL1 transcripts": {"tested_on": "MCL1 transcripts", "assay": "MCL1-S/L ratio by splice isoform-specific qRT-PCR in primary CD34+ MF HPC and LSC", "type": "cell-based, human", "settings": "0.1 μM, compared with vehicle, short-term culture, no stroma"}, "ADAR1": {"tested_on": "ADAR1", "assay": "ADAR1 nanoluc-GFP reporter assay in primary high-risk MF CD34+ cells in stromal co-culture", "type": "cell-based, human", "settings": "primary high-risk MF HPCs, 72 hr; p<0.05 compared to DMSO", "description": "(FIG. 27F) Luminescence-based quantification of ADAR1-dependent nanoluciferase signals in CD34^+ cells from primary, high-risk MF samples (*=untreated patient) after in vitro transduction with the ADAR1 nanoluc-GFP reporter and treatment with vehicle control (DMSO) or Rebecsinib (72 hr). Relative luciferase signals were normalized to cell viability for each condition. Data are represented as mean±SEM. p<0.05 compared to DMSO controls by pairwise t-test.\nFor nanoluciferase RNA editing activity assays, CD34^+ selected cells from primary high-risk MF samples were lentivirally transduced with ADAR1 nanoluc-GFP reporter for 48 hr, followed by treatment with DMSO or Rebecsinib in stromal co-culture for 72 hr. Luminescence reporter activity was measured in 10,000 cells by NANO-GLO LUCIFERASE ASSAY™ and values were normalized to cell viability. Cell viability was measured in 10,000 cells by CellTiter-Glo Luciferase Assay (Promega). A pilot in vivo reporter assay was also performed using TF-1a cells that were stably transduced with the ADAR1 nanoluc-GFP reporter. […] Cells were transplanted into neonatal Rag2^−/−γc^−/− mice (70,000 cells per mouse), and animals were imaged 4 weeks after transplant on the IVIS 200, as previously described.^7,9 Human cell engraftment was also confirmed in the peripheral blood in the same week as imaging."}, "normal HSPCs": {"tested_on": "normal HSPCs", "assay": "Normal cord blood HSPC engrafted mice", "type": "in vivo, human cells in Rag2-/-γc-/- mice", "method": "To determine the sensitivity of normal HSPCs to Rebecsinib, human cord blood-derived CD34+ cells were transplanted into Rag2^−/−γc^−/− mice. After human cell engraftment was established (6 to 12 weeks), mice were treated with Rebecsinib twice-weekly for two weeks at doses equivalent to the maximum doses selected for in vivo LSC assays. The frequency of CD45^+ hematopoietic cells in bone marrow, peripheral blood, spleen, and thymus were unchanged between vehicle and Rebecsinib-treated groups that received a dose of 10 mg/kg. […] Thus, a dose of 10 mg/kg in mice is sufficient to reduce in vivo sAML LSC burden while sparing normal HSPC development.\nIn humanized mouse models, sAML cells (CD34^+) from two unique […] patient samples that were splicing factor mutated or unmutated were utilized, including sAML50261 and sAML2008-5.^14 For in vivo efficacy and therapeutic index studies, sAML CD34^+ cells, or normal human cord blood-derived or aged bone marrow-derived HSPCs (CD34^+), were transplanted (50,000-200,000 cells per mouse) intrahepatically into neonatal Rag2^−/−γc^−/− mice, or intravenously into adult NSG-SGM3 mice (Jackson Laboratories, Bar Harbor, ME). A subset of experiments was performed with normal aged bone marrow cells that were transduced with the lentiviral ADAR1 nanoluc-GFP reporter vector prior to transplant. For transplantation into adult mice, animals were irradiated with ^137Cs at a dose of 150 cGy 24 hr before IV transplantation. After engraftment levels reached >1% human CD45^+ hematopoietic cells in the peripheral blood, animals were distributed among treatment groups for treatment with Rebecsinib or vehicle control essentially as previously described, with an increased dosing regimen of twice weekly (versus once weekly in prior studies)^14 and an optimized in vivo formulation (2% w/w EtOH, 5% w/v KOLLIPHOR HS™ 15 in 0.9% saline). For animals that received transplants of cells transduced with the lentiviral ADAR1 nanoluc-GFP reporter, mice were imaged 15 weeks after transplant on the IVIS 200, as previously described.^79 Following treatment with Rebecsinib (five intravenous doses total over a two-week period), hematopoietic tissues (peripheral blood, bone marrow, spleens) were collected and analyzed by flow cytometry as previously described.^14 For splice isoform-specific qRT-PCR or RNA-seq analyses on cells from in vivo studies, human CD34^+ LSC from bone marrows and spleens of engrafted mice were isolated by magnetic bead separation (Miltenyi Biotec)."}},
  "data": [
    {"smiles": "CC[C@H](OC)[C@@H](C)[C@H]1O[C@@H]1[C@@H](O)[C@H](C)/C=C/C=C(\\C)[C@H]1OC(=O)C[C@H](O)CC[C@@](C)(O)[C@@H](OC(C)=O)/C=C/[C@@H]1C", "note": "[Rebecsinib]", "values": [
      {"measurement": "human CD45+ cells in PB, BM, and SP", "setting": "[1]", "result": "preserved human CD45^+ cells"},
      {"measurement": "CD34+Lin- cell population in SP", "setting": "[1]; p=0.0006, Student's t-test", "result": "significant inhibition"},
      {"measurement": "CD34+Lin- cell population in PB", "setting": "[1]; p=0.0015, Student's t-test", "result": "significant inhibition"},
      {"measurement": "KG-1a AML cell survival", "setting": "KG-1a AML cells", "result": "impaired CD34^+ KG-1a AML cell survival"},
      {"measurement": "IC50", "setting": "KG-1a AML cells; Homo sapiens, CD34+ KG-1a AML cell survival and RFP to GFP reporter expression", "result": "~100", "unit": "nM"},
      {"measurement": "MCL1-S/L transcript ratio", "setting": "MCL1 transcripts", "result": "elevated expression of pro-apoptotic MCL1-short (S) compared with anti-apoptotic MCL1-long (L) transcripts"},
      {"measurement": "ADAR1 RNA editing activity (nanoluciferase signal)", "setting": "ADAR1", "result": "significantly reduced ADAR1 RNA editing activity"},
      {"measurement": "frequency of CD45+ hematopoietic cells in bone marrow, peripheral blood, spleen, and thymus", "setting": "normal HSPCs; 10 mg/kg, twice-weekly for two weeks", "result": "unchanged"},
      {"measurement": "human CD19+ cells in peripheral blood", "setting": "normal HSPCs; 20 mg/kg", "result": "reduction"},
      {"measurement": "human CD45+ and CD19+ cells in bone marrow or spleen", "setting": "normal HSPCs; 20 mg/kg", "result": "not in the bone marrow or spleen"},
      {"measurement": "human CD45+ cells in peripheral blood", "setting": "normal HSPCs; 20 mg/kg", "result": "reduction"},
      {"measurement": "systemic toxicity", "setting": "normal HSPCs; 2 weeks of dosing at 10 or 20 mg/kg", "result": "no evidence of Rebecsinib-related systemic toxicity"},
      {"measurement": "CD19+ B cells in bone marrow, peripheral blood, or spleen", "setting": "normal HSPCs; vs vehicle", "result": "no significant reduction"},
      {"measurement": "human CD3+ T cells in thymus or peripheral blood", "setting": "normal HSPCs; vs vehicle", "result": "no significant reduction"}
    ]}
  ]
}
